From the supplement of paper PMC11451515

Legend:
Details in all cases: 48 h
NOMO1 [1] = test: cell viability relative to DMSO control; higher = less cytotoxic
Outline: (§1)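 Viability is a per-plate percentage relative to DMSO wells, with cell-free wells as background. CellTiter-Glo One luminescence was read after 48 h at 37°C on 1536-well plates (5 μl) of NOMO1 or SEM (500 cells/well) or P12-Ichikawa (1000 cells/well) leukemia cells. The cells had been adapted for at least four passages in each medium and pin-dosed with library compounds in DMSO from 47 μM to 0.79 nM in 11 threefold steps.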

P12-Ichikawa [2] = test: as above
Outline: as §1

SEM cells [3] = test: as above
Outline: as §1

NOMO1 [4] = test: AUC of viability dose-response curve (% viability x log10 dose units); higher = less sensitive
Outline: (§2)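 Leukemia cells adapted to each medium were seeded in 1536-well plates (500 or 1000 cells/well). They were dosed with library compounds in DMSO at 11 threefold doses, 47 μM to 0.79 nM, for 48 h at 37°C. CellTiter-Glo One luminescence was normalised per plate to DMSO and cell-free wells. Area under the curve was integrated by trapezoidal rule over log10 doses on a four-parameter log-logistic fit; curves exceeding full viability were scaled and curves failing quality control removed.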

P12-Ichikawa [5] = test: as above
Outline: as §2

SEM cells [6] = test: as above
Outline: as §2

CC(C(C)N1CC(=O)NC(=O)C1)N1CC(=O)NC(=O)C1 (configuration not stated)
cell viability [%]
Details	NOMO1 [1]	P12-Ichikawa [2]	SEM cells [3]
HPLM + 10% dialyzed FBS, 0.000781 µM	–	117	97.2
HPLM + 10% dialyzed FBS, 0.00234 µM	–	123	136
HPLM + 10% dialyzed FBS, 0.00702 µM	–	121	116
HPLM + 10% dialyzed FBS, 0.0211 µM	–	119	125
HPLM + 10% dialyzed FBS, 0.0632 µM	–	131	116
HPLM + 10% dialyzed FBS, 0.19 µM	–	130	128
HPLM + 10% dialyzed FBS, 0.569 µM	–	130	123
HPLM + 10% dialyzed FBS, 1.71 µM	–	117	106
HPLM + 10% dialyzed FBS, 5.12 µM	–	109	95.2
HPLM + 10% dialyzed FBS, 15.4 µM	–	102	58.4
HPLM + 10% dialyzed FBS, 46.1 µM	–	89.6	40.5
RPMI 5 mM glucose + 10% FBS, 0.000781 µM	–	–	73.4
RPMI 5 mM glucose + 10% FBS, 0.00234 µM	–	–	79.9
RPMI 5 mM glucose + 10% FBS, 0.00702 µM	–	–	101
RPMI 5 mM glucose + 10% FBS, 0.0211 µM	–	–	102
RPMI 5 mM glucose + 10% FBS, 0.0632 µM	–	–	92
RPMI 5 mM glucose + 10% FBS, 0.19 µM	–	–	104
RPMI 5 mM glucose + 10% FBS, 0.569 µM	–	–	80.8
RPMI 5 mM glucose + 10% FBS, 1.71 µM	–	–	60.1
RPMI 5 mM glucose + 10% FBS, 5.12 µM	–	–	49
RPMI 5 mM glucose + 10% FBS, 15.4 µM	–	–	31
RPMI 5 mM glucose + 10% FBS, 46.1 µM	–	–	19.7
RPMI 5 mM glucose + 10% dialyzed FBS, 0.000781 µM	110	–	86
RPMI 5 mM glucose + 10% dialyzed FBS, 0.00234 µM	121	–	93.3
RPMI 5 mM glucose + 10% dialyzed FBS, 0.00702 µM	139	–	120
RPMI 5 mM glucose + 10% dialyzed FBS, 0.0211 µM	133	–	134
RPMI 5 mM glucose + 10% dialyzed FBS, 0.0632 µM	127	–	122
RPMI 5 mM glucose + 10% dialyzed FBS, 0.19 µM	123	–	115
RPMI 5 mM glucose + 10% dialyzed FBS, 0.569 µM	139	–	128
RPMI 5 mM glucose + 10% dialyzed FBS, 1.71 µM	135	–	91.3
RPMI 5 mM glucose + 10% dialyzed FBS, 5.12 µM	130	–	65.7
RPMI 5 mM glucose + 10% dialyzed FBS, 15.4 µM	124	–	39.1
RPMI 5 mM glucose + 10% dialyzed FBS, 46.1 µM	106	–	35.1

AUC of viability dose-response curve
Details	NOMO1 [4]	P12-Ichikawa [5]	SEM cells [6]
HPLM + 10% dialyzed FBS	459	454	422
RPMI 5 mM glucose + 10% FBS	468	425	351
RPMI 5 mM glucose + 10% dialyzed FBS	471	447	401

Cc1cc(Nc2cc(N3CCN(C)CC3)nc(/C=C/c3ccccc3)n2)n[nH]1
cell viability [%]
Details	NOMO1 [1]	P12-Ichikawa [2]	SEM cells [3]
HPLM + 10% dialyzed FBS, 0.000781 µM	111	105	83.9
HPLM + 10% dialyzed FBS, 0.00234 µM	122	111	109
HPLM + 10% dialyzed FBS, 0.00702 µM	117	115	112
HPLM + 10% dialyzed FBS, 0.0211 µM	122	120	96.5
HPLM + 10% dialyzed FBS, 0.0632 µM	135	118	95.4
HPLM + 10% dialyzed FBS, 0.19 µM	114	122	60.3
HPLM + 10% dialyzed FBS, 0.569 µM	130	116	36.6
HPLM + 10% dialyzed FBS, 1.71 µM	53.7	12.1	6.67
HPLM + 10% dialyzed FBS, 5.12 µM	14.8	5.08	5.57
HPLM + 10% dialyzed FBS, 15.4 µM	5.4	4.47	4.53
HPLM + 10% dialyzed FBS, 46.1 µM	5.88	5.23	5.51
RPMI 5 mM glucose + 10% FBS, 0.000781 µM	106	113	86.5
RPMI 5 mM glucose + 10% FBS, 0.00234 µM	98.4	108	108
RPMI 5 mM glucose + 10% FBS, 0.00702 µM	110	113	94.1
RPMI 5 mM glucose + 10% FBS, 0.0211 µM	112	117	112
RPMI 5 mM glucose + 10% FBS, 0.0632 µM	115	121	93.8
RPMI 5 mM glucose + 10% FBS, 0.19 µM	123	125	60.6
RPMI 5 mM glucose + 10% FBS, 0.569 µM	100	119	29.5
RPMI 5 mM glucose + 10% FBS, 1.71 µM	47.6	41.5	5.23
RPMI 5 mM glucose + 10% FBS, 5.12 µM	13.3	8.43	4.53
RPMI 5 mM glucose + 10% FBS, 15.4 µM	4.18	4.4	3.57
RPMI 5 mM glucose + 10% FBS, 46.1 µM	3.81	4.88	4.68
RPMI 5 mM glucose + 10% dialyzed FBS, 0.000781 µM	108	107	100
RPMI 5 mM glucose + 10% dialyzed FBS, 0.00234 µM	104	114	112
RPMI 5 mM glucose + 10% dialyzed FBS, 0.00702 µM	111	112	97.1
RPMI 5 mM glucose + 10% dialyzed FBS, 0.0211 µM	104	112	112
RPMI 5 mM glucose + 10% dialyzed FBS, 0.0632 µM	110	121	95.3
RPMI 5 mM glucose + 10% dialyzed FBS, 0.19 µM	114	130	57.8
RPMI 5 mM glucose + 10% dialyzed FBS, 0.569 µM	105	126	28.2
RPMI 5 mM glucose + 10% dialyzed FBS, 1.71 µM	56.3	37.4	6.13
RPMI 5 mM glucose + 10% dialyzed FBS, 5.12 µM	24.2	11.6	4.41
RPMI 5 mM glucose + 10% dialyzed FBS, 15.4 µM	7.24	5.07	3.5
RPMI 5 mM glucose + 10% dialyzed FBS, 46.1 µM	5	5.54	5.17

AUC of viability dose-response curve
Details	NOMO1 [4]	P12-Ichikawa [5]	SEM cells [6]
HPLM + 10% dialyzed FBS	340	320	264
RPMI 5 mM glucose + 10% FBS	334	333	261
RPMI 5 mM glucose + 10% dialyzed FBS	345	333	255
